Results on one molecule are retold here after patent US10793864B2, “Methods and compositions for assessing viral nuclear localization” (GEORGE MASON UNIVERSITY, priority 2015, dated 2020).

Common to all, as to assay type: cell-based
One data set has as its system HIV-1NL4-3. Description: HIV-1 replication measured by p24 release in CEM-SS T cells. The settings on record: CEM-SS T cells pre-treated 1 hour, infected with HIV-1NL4-3. On the procedure:
(§1) Briefly, CEM-SS T cells were pre-treated with DMSO or CK548 for 1 hour, and then infected with HIV-1NL4-3. Viral replication was measured by p24 release (see FIG. 5A). Drug cytotoxicity was meaured in CK548-treated and infected cells by PI staining and flow cytometry (see FIG. 5B). Shown is the percentage of PI-positive cells. […] Cells were infected for 2 hours, washed, and cultured in the presence of the drug for 48 hours. Total cellular DNA was extracted at 48 hours post infection and then PCR-amplified to quantify viral DNA (for results see FIG. 5C). Viral 2-LTR-circles were also measured (see FIG. 5D). The relative ratio of 2-LTR circles to viral total DNA was also plotted.

For the next data set, the system named is CEM-SS T cells. Description: Drug cytotoxicity by PI staining and flow cytometry. The settings on record: CK548-treated and infected CEM-SS T cells; at 50 μM and below. As to the method: as §1
(Flow cytometry measures light scatter and fluorescence of single cells or particles in a stream.)

Data set [1] concerns single-cycle HIV-1(Env) pseudotyped with HIV-1 gp160. Description: Viral nuclear migration, 2-LTR circles measured after single-cycle HIV-1 infection. The settings on record: CEM-SS T cells, 48 hours post infection. On the procedure:
as §1
(§2) The nuclear migration assay was performed in two CEM-SS-based cells, shArp-12 and shArp-13, which we recently constructed. In both shArp-12 and shArp-13, the actin branching factor Arp3 was stably knockdown (80% knockdown). […] We will re-measure the nuclear entry defect by BLNMA. […] We will also perform BLNMA to confirm the phenotype.

For data set [2] the test system is unchanged. The data set can be described thus: PCR quantification of viral DNA after single-cycle HIV-1 infection. The settings on record: CEM-SS T cells, 48 hours post infection. As to the method: as §1, §2

“Also recorded” adds a separate entry of the source.

In the case of `O=C1CSC(c2cccc(Br)c2)N1c1cc(Cl)ccc1O` (stereo not shown) [CK548], in the data set with HIV-1NL4-3, the “HIV-1 infection (viral replication by p24 release)” value was “inhibits HIV-1 infection”. Further, the “Drug cytotoxicity (percentage of PI-positive cells)” value with CEM-SS T cells is given as “No drug cytotoxicity was detectable”. In addition, the “HIV nuclear migration (2-LTR circles)” value in data set [1] is “inhibits HIV-1 infection and viral nuclear migration; also recorded: dramatically inhibited HIV nuclear migration”. Also, in data set [2], the “HIV DNA synthesis (viral total DNA by PCR)” value is “stimulating HIV DNA synthesis”.
